Results from patent EP4644375A1, “SUBSTITUTED HYDROQUINOLINES FOR THE TREATMENT OF GLIOBLASTOMA MULTIFORME” (Molius Saglik Teknolojileri Anonim Sirketi, priority 2024, dated 2025).
Entries after “also recorded” stand apart in the source; their conditions may differ.

Columns and labels:
[1] = system: U138-MG human glioma cell; assay: Cell proliferation analysis (MTT); type: cell-based; settings: Homo sapiens, 48 h, 10 µM, two days, MTT
[2] = system: U87-MG human glioma cell; assay: Cell proliferation analysis (MTT); type: cell-based; settings: Homo sapiens, U-87 MG, 48 h, 10 µM, two days, MTT
[3] = In vivo GBM rat model: haematology; settings: GBM rats, 30 mg/kg oral, 5 days, blood at necropsy
Description: (§1) The parameters that were analysed can be seen in Table 11.

[4] = system: GBM xenograft rat model; assay: In vivo GBM rat model: survival; settings: GBM rats, 30 mg/kg oral gavage once daily for 5 days, 14th to 28th day, compared to untreated GBM rats; 30 mg/kg
Description: (§2) An in Vivo study was performed to assess the therapeutic potential of TR-G002, TR-G045, TR-G053, TR-G066, TR-G071 and TR-G091 in the GBM xenograft rat model when administered orally by gavage for five consecutive days. 152 female rats of the Sprague Dawley strain were allocated to the study. Six groups of sixteen females were given dose of 30 mg/kg of the respective target compounds. […] The study design can be seen in Fig. 11 and Table 10.
(§3) Female Sprague Dawley rats (age: 6-8 weeks; weight: 255-310 g; ATADEM, Erzurum, Turkey) were utilized in the study. Rats underwent anaesthesia with 5% isoflurane, maintained at 2% isoflurane (1 L/min oxygen), and were positioned in a stereotactic frame for cell implantation (Stoelting Co., IL). […] A burr hole was drilled 1-mm anterior and 3-mm lateral to the right bregma. A microsyringe (Hamilton 1700 series) containing 5×10^4 U87-MG cells suspended in 5 µL of medium at 37 °C was advanced to a depth of 4 mm into the brain. The cells were injected at a rate of 3 µL/ min. Bone wax was used to fill the burr hole to prevent cell suspension reflux. The incision was sutured, and 1 mL of Meloxicam (5 mg/mL; Metacam, Boehringer Ingelheim Vetmedica, Ingelheim, Germany) was administered via a subcutaneous injection.
(§4) Fourteen days after inoculation, tumor development in rats was visualized and confirmed through magnetic resonance imaging (MRI). Rats confirmed to have developed tumors were then distributed into six different groups for treatment. […] 9 days after the final treatment dose, the rats underwent another MRI scan and blood and brain samples were taken under anaesthesia.

[5] = In vivo GBM rat model: plasma chemistry; design: CREA. / UA / TCHOL / HDLC: unit not given here
Description: as §1

[6] = Peripheral blood micronucleus assay; type: in vivo, Rat; settings: GBM rats, 30 mg/kg oral, 5 days, 1000 cells per animal evaluated
Description: Blood smears were made on clean microscope slides, allowed to air-dry, treated with methanol for fixation, and then stained with Giemsa (10% in 0.1 mM of sodium phosphate buffer, pH 6.8) for 10 min. After washing with PBS, the slides were examined under a light microscope. The frequencies of micronuclei (MN) were calculated by evaluating 1000 cells per animal.

[7] = system: GBM xenograft rat model; assay: In vivo GBM rat model: MRI analysis of tumor volumes; settings: GBM rats, 30 mg/kg oral, 5 days
Description: as §2, §3, §4
The anaesthetic was administered via an intraperitoneal route on animals fixed in the supine position with parallel hind limbs. MRI was performed using a 3 Tesla clinical scanner (Magnetom Skyra; Siemens Healthineers, Erlangen, Germany). Rats were placed in the prone position. T2-SPACE (sampling perfection with application-optimized contrast using different flip angle Evolution) sequence was obtained to view the brain in coronal and transverse planes. (TR: 6000 ms, TE: 100 ms, voxel size: 0.5 × 0.5 × 1 mm, 34 slices, slice thickness: 2 mm, slice spacing: 0.6 mm). The volume measurements of brain tumors were performed manually. One radiologist calculated the tumour volume - manually measuring tumour length (L), width (W), and height (H) - and then calculated the tumour volume using the formula 0.5236 × L × W × H (Stuppner S et al., 2020).

[8] = system: GFAP; assay: In vivo GBM rat model: immunohistochemical examination; settings: brain tissues, GBM rats, 30 mg/kg oral, 5 days
Excerpt: (§5) For immunohistochemical examinations, primary antibodies (Ki67 Cat no: ab15580 dilution ratio: 1/100; CMPK2 Cat no: PA5-34461, dilution ratio: 1/100, GFAP Cat no: ab6842 dilution ratio: 1/100) were used. 3-3' Diaminobenzidine (DAB) was used as chromogen. Mayer's hematoxylin was used for counterstaining. Sections were examined under a light microscope (Zeiss AXIO, Germany).
(§6) Individual body weights were manually calculated. Group mean body weights; group mean body weight changes and organ weights were also manually calculated without statistical analysis. To determine the density of positive staining from immunohistochemical and immunofluorescence staining images, five randomly selected areas were evaluated using ZEISS Zen Imaging Software. Data were statistically defined as mean and standard deviation (mean ± SD) for the percentage of the area. One-way ANOVA followed by the Tukey test was performed to compare immunoreactive cells and immune-positive stained areas with healthy controls. GraphPad Prism software was used for analysis.

[9] = system: Ki67; assay: as above; settings: tumor cells, brain tissues, GBM rats, 30 mg/kg oral, 5 days
Excerpt: as §5, §6

[10] = GBM rats, 30 mg/kg oral, 5 days, plasma at necropsy

**Q.** With `O=C1CCc2cc(OS(=O)(=O)c3cccc4ccccc34)ccc2N1` [TR-G045, 2-oxo-1,2,3,4-tetrahydroquinolin-6-yl naphthalene-1-sulfonate] as the molecule, how does the activity at 10 µM [1] read?
**A.** The activity at 10 µM was 71%.

**Q.** What about the inhibition at 10 µM [1] of the same molecule?
**A.** Its inhibition at 10 µM is 30%.

**Q.** What about the activity at 10 µM [2] of the same molecule?
**A.** Its activity at 10 µM is 71%.

**Q.** And the inhibition at 10 µM [2]?
**A.** The inhibition at 10 µM was 29%.

**Q.** And the HCT [3]?
**A.** The HCT was 47.24%.

**Q.** What about the HGB [3] of the same molecule?
**A.** Its HGB is 14.12 g/dL.

**Q.** What about the MCH [3] of the same molecule?
**A.** The MCH was 18.46 pg.

**Q.** What about the MCHC [3] of the same molecule?
**A.** The MCHC was 30.54 g/dL.

**Q.** And the MCV [3]?
**A.** Its MCV is 60.48 fL.

**Q.** And the PLT [3]?
**A.** The PLT was 845.60 10^9 /L.

**Q.** And the RBC [3]?
**A.** The RBC was 8.34 10^12/L.

**Q.** What about the WBC [3] of the same molecule?
**A.** Its WBC is 4.32 10^9/L.

**Q.** And the survival [4]?
**A.** Its survival is “significantly improved survival; also recorded: prolonged survival”.

**Q.** And the ALP [5, 10]?
**A.** The ALP was 138.47 IU/L.

**Q.** And the ALT [5, 10]?
**A.** The ALT was 54.5 IU/L.

**Q.** And the AST [5, 10]?
**A.** Its AST is 104.7 IU/L.

**Q.** And the CREA. [5, 10]?
**A.** Its CREA. is 0.35.

**Q.** And the GLU [5, 10]?
**A.** The GLU was 316 mg/dL.

**Q.** What about the HDLC [5, 10] of the same molecule?
**A.** The HDLC was 37.58.

**Q.** And the LDH [5, 10]?
**A.** Its LDH is 506.78 IU/L.

**Q.** And the “LDL C” value [5, 10]?
**A.** Its value is 5.28 mmol/L.

**Q.** And the TCHOL [5, 10]?
**A.** Its TCHOL is 56.52.

**Q.** And the TG [5, 10]?
**A.** The TG was 120 mg/dL.

**Q.** What about the UA [5, 10] of the same molecule?
**A.** The UA was 1.6.

**Q.** What about the “levels of AST, ALT and LDH” value ([5]; in comparison to the levels in untreated GBM rats) of the same molecule?
**A.** The value was “significantly decreased”.

**Q.** And the MN frequency [6]?
**A.** The MN frequency was 12.05 ± 1.78.

**Q.** What about the tumor size ([7]; MRI 14th vs 28th day) of the same molecule?
**A.** The tumor size was “decrease in tumor size”.

**Q.** And the “antitumor activities, order” value ([7]; ranking)?
**A.** Its value is “TR-G066> TR-G045> TR-G002>TMZ> TR-G091> TR-G053> TR-G071”.

**Q.** And the “GFAP expression in astrocytes around the tumor” value [8]?
**A.** Its value is “moderate”.

**Q.** And the “expression of Ki67” value [9]?
**A.** The value was “moderate”.
